Data from patent US20140315956A1, “SMALL MOLECULE INHIBITORS OF IL-6 AND USES THEREOF” (NATIONWIDE CHILDREN'S HOSPITAL, priority 2011, published 2014).
pKd: −log10 of the molar value. “Also recorded” adds a separate entry of the source. Where two headings read alike, the source gives them in different places.

Tests used:
[1] = test system: LIF mediated STAT3 phosphorylation; experiment: LIF induced phosphorylation of STAT3 (FIG. 34); assay type: cell-based
[2] = target: T1, gp130 extracellular domain (recombinant gp130-Fc-HA) (Homo sapiens, UniProt P40189); experiment: Surface plasmon resonance direct binding to gp130-Fc-HA; details: for Kd: gp130-Fc-HA on CM5 chip, BIAcore T100, read-out: SPR data (Kd μM); for binding in SPR direct binding assay, comparison in words: relative to MDL-A or to other analogues
T1 construct: purified gp130 (amino residue 18-615); made in house; host or cells: HEK293T (plasmid from Dr. John J. Krolewski)
T1 sequence (P40189 18-615): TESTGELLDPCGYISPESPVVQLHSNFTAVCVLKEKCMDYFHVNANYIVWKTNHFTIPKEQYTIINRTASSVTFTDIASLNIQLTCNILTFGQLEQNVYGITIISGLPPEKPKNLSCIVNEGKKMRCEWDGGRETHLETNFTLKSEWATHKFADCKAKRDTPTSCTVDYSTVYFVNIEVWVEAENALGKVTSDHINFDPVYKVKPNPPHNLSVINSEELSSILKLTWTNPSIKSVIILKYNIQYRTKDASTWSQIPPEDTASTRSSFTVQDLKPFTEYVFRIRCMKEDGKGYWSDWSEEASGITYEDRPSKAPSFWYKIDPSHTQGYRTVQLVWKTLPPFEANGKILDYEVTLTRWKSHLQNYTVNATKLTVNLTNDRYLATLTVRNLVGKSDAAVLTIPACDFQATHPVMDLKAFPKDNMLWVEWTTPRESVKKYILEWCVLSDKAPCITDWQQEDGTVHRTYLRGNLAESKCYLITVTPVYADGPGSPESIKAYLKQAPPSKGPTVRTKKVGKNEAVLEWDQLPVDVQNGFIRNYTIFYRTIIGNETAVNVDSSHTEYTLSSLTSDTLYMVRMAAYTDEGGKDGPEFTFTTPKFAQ
Protocol: HEK293T cells were grown in media containing DMEM+10% fetal bovine serum (FBS),100 U/ml penicillin and […] streptomycin (Invitrogen) in a humidified 37° C. incubator with 5% CO2. Plasmid DNA expressing gp130-Fc-HA was transfected in the form of calcium phosphate precipitate into HEK293T cells (ten T75 flasks containing 5.5×10^6 cells). The supernatant was harvested sixty hours post transfection and centrifuged to remove residual cells and adjusted to pH 8.0. The supernatant was passed through a 0.45 μm filter. The gp130-Fc-HA tagged protein was immunoprecipitated using anti-HA affinity matrix (Roche Applied Bioscience).A one milliliter column containing anti-HA affinity matrix was equilibrated with 20 mM Tris-HCl, 0.1M NaCl, 0.1 mM EDTA (pH 8.0). The supernatant was applied to the equilibrated column and the column was washed successively with 20 mM Tris-HCl, 1M NaCl (pH 8.0). Bound protein was eluted with HA peptide dissolved in equilibration buffer. The column was regenerated with 0.1 M glycine (pH 2.0). Fractions containing recombinant protein were pooled, dialyzed against HBS buffer [10 mM HEPES (pH 7.4), 0.15 M NaCl, 3 mM EDTA, 0.005% P20] and concentrated by Centricon 30 (Amicon) centrifugation. Protein concentration was determined using Bradford protein assay reagent (Pierce), with bovine serum albumin (BSA, Fisher Scientific) as a standard. The purified recombinant gp130 protein was analyzed using SDS-PAGE and immunoblotting.
Surface plasmon resonance (SPR) analysis was performed using BIAcore T100. Recombinant gp130-Fc-HA was cross-linked to the flow cell on a carboxymethylated dextran matrix of a CM5 sensor chip (BIAcore) using standard amino group coupling methods according to the manufacturer's instructions. Sodium acetate (10 mM, pH 3.5) gave the best immobilization of the protein on the chip surface and unreactive groups on the chip were blocked by ethanolamine according to the manufacturer's instructions. Approximately 5000 resonance units (RU) of gp130-Fc-HA were cross-linked to the flow cell. HBS+1% DMSO were used in all buffers (running and sample) to avoid background response due to differences in buffer refractive index. For the equilibrium analysis, various concentrations of MDL-A, 1, and 2 were injected for a period of 2 min at a flow rate of 30 μl/min, in series, into flow cells containing covalently bound gp130-fc-HA and reference flow cell. Bound ligand (MDL-A, 1, and 2) in each assay was removed by passing 10 mM glycine (pH 2.2) over the chip surface. Biacore T100 Evaluation 2.0 was used for all interaction analyses. The steady-state equilibrium response (RUeq) was determined from the reference-subtracted sensogram. The kinetics parameter was calculated according to a 1:1 Langmuir binding model (A+B ? AB) by direct fitting of ligand binding sensor grams at multiple concentrations. The dissociation equilibrium constant is defined as dissociation constant (KD)=dissociation rate constant (kd)/association rate constant (ka). KD was determined by scattered analysis of equilibrium-state data obtained at different concentrations of analogues.
To examine the direct binding and calculation of equilibrium dissociation constant (KD) of MDL-A analogues with gp130 extracellular domain, surface plasmon resonance analysis was done. Protein was covalently cross linked to the dextran matrix of the biosensor chip CM5. Successively, various concentrations of MDL-A and MDL-A analogues were injected into the flow cells containing bound protein and no protein (reference). Interactions were monitored in real time and KD values were calculated by reference-substrated sensogram.
To examine the direct binding and calculate the equilibrium dissociation constant (KD) of MDL-A analogues with gp130 extracellular domain, surface plasmon resonance analysis was performed. Surface plasmon resonance (SPR) analysis was performed using a BIAcore T100. […]

[3] = test system: SUM-159 breast cancer cells tumor xenograft; experiment: Tumor xenograft model with SUM-159 breast cancer cells; assay type: in vivo, human; details: 100 mg/kg, SUM-159 xenograft, vehicle DMSO
Source text: The effect of a representative compound, MDL-16, on tumor progression is compared to a group treated with vehicle (DMSO).

[4] = test system: IL6 mediated STAT3 phosphorylation; experiment: IL6 induced phosphorylation of STAT3 (FIG. 34); assay type: cell-based
[5] = test system: Stat3 phosphorylation (p-Tyr705) induced by IL-6 in LNCaP prostate cancer cells; experiment: IL-6 induced Stat3 phosphorylation in LNCaP cells, Western blot; assay type: cell-based; details: for inhibition of Stat3 phosphorylation induced by IL6: Western blot; for relative potency of inhibition of Stat3 phosphorylation: comparison in words
Protocol: LNCaP prostate cancer cells were acquired from American Type Culture Collection. Cells were maintained in RPMI 1640 medium, 1× with 4.5 g/L L-glutamine, supplemented with 10% FBS, 100 U/ml penicillin and […] streptomycin (Invitrogen), in a humidified atmosphere of 5% CO2 at 37° C.
LNCaP prostate cancer cells were seeded in T75 flasks, grown to 50% confluence and serum-starved the following night. The cells were left untreated or were treated with MDL-A (100-400 μM), 1, 2 (5-40 μM) or DMSO in the absence of FBS. After 4 hours, the cells were stimulated with 12.5 ng/ml IL-6 (Cell Signaling Technology). The cells were then harvested at 30 minutes and washed with PBS and lysed in cold M-PER lysis buffer (Pierce) containing protease inhibitors (Sigma) and phosphatase inhibitors (Roche). Lysates were centrifuged at 14,000 rpm for 15 minutes at 4° C. and supernatants were collected and stored at −20° C. until further use.
Cell lysates were assayed for their protein concentrations using the Bradford protein assay reagent (Pierce), using BSA (Fisher Scientific) as the standard. Lysate samples were adjusted for the same protein concentration, approximately 5 μg of sample protein was loaded into each of the appropriate lanes. Protein samples were separated by SDS-PAGE and electrotransferred to PVDF membranes. The membranes were washed and blocked with 5% BSA in TBST (60 mM Tris-base, 120 mM NaCl, 0.1% Tween-20) for at least one hour and incubated with anti-phospho-STAT3 (p-Tyr705) antibody, anti-STAT3 antibody or anti-GAPDH antibody (all from Cell Signaling Technology) in 5% BSA in TBST overnight at 4° C. Blots were then washed three times in TBST and incubated with a horseradish peroxidase-conjugated goat anti-rabbit IgG secondary antibody (Cell Signaling Technology) in 5% BSA in TBST for 1 hour at room temperature. The bound antibody was detected using Enhanced Chemiluminescence detection reagents (Pierce) according to the manufacturer's instructions and chemiluminescence visualized using ECL Hyperfilm (Amersham).

[6] = test system: nuclear translocation of STAT3 in MCF-7 cells; experiment: Immunofluorescence of IL6-activated STAT3 nuclear translocation in MCF-7 cells; assay type: cell-based
[7] = test system: Stat3 phosphorylation (p-Tyr705) induced by IL-6 in LNCaP prostate cancer cells; experiment: IL-6 induced Stat3 phosphorylation in LNCaP cells, Western blot; assay type: cell-based; details: IL-6 12.5 ng/ml 30 min
[8] = gp130 extracellular domain, Biacore evaluation software 2.0, read-out: KD

Row | Compound | LIF mediated STAT3 phosphorylation [1] | Kd [2] | binding in SPR direct binding assay, comparison in words [2] | pKd ([2]; values in running text and figure legend, read-out: dissociation constant (KD)) | effect on tumor progression compared to vehicle [3] | IL6 mediated STAT3 phosphorylation [4] | inhibition of Stat3 phosphorylation induced by IL-6 at 40 µM ([5]; 40 μM compound 4 hours, IL-6 12.5 ng/ml 30 min) | inhibition of Stat3 phosphorylation induced by IL6 ([5]; IL-6 12.5 ng/ml 30 min) | relative potency of inhibition of Stat3 phosphorylation [5] | nuclear translocation of STAT3 activated by IL6 [6] | pKd [2, 8] | inhibition of Stat3 phosphorylation induced by IL-6 at 40 µM [7]
1 | CCCCc1ccc(O)c(Cn2cc(C[C@H](O)COC(=O)c3ccccc3)c3ccccc32)c1O [MDL-16, (S)-3-(1-(3-Butyl-2,6-Dihydroxybenzyl)-1H-Indol-3Yl)-2-Hydroxypropyl Benzoate] | not LIF mediated STAT3 phosphorylation | 29 µM | stronger binding than analogues without extra attachments; also recorded: strongest binding affinity; also recorded: better binding than MDL-A; also recorded: better activity than MDL-A | 4.53 | significant effect on tumor progress compared to vehicle | inhibits IL6 mediated STAT3 phosphorylation | completely inhibits | dose dependent inhibition | slightly more potent than MDL-5 | inhibits the nuclear translocation of STAT3 |  | 
2 | CCCCc1ccc(OC)c(CN2c3ccccc3[C@]3(O)C[C@H](COC(=O)c4ccccc4)O[C@H]23)c1OC [MDL-17] |  | 42.5 µM | stronger binding than analogues without extra attachments; also recorded: better binding than MDL-A; also recorded: better activity than MDL-A |  |  |  |  |  |  |  |  | 
3 | CCCCc1ccc(OC)c(Cn2cc(CCO)c3ccccc32)c1OC [MDL-8] |  | 41.4 µM | better binding than MDL-A; also recorded: better activity than MDL-A |  |  |  |  |  |  |  | 4.38 | 
4 | CCCCc1ccc(O)c(Cn2cc(CCO)c3ccccc32)c1O [MDL-6] |  | 49.5 µM | better binding than MDL-A; also recorded: better activity than MDL-A |  |  |  |  |  | slightly more potent than MDL-5 |  | 4.31 | completely inhibit
5 | CCCCc1ccc(O)c(CN2c3ccccc3[C@]3(O)C[C@H](COC(=O)c4ccccc4)O[C@H]23)c1O (stereo in doubt) [MDL-5, ((2S,3AR)-8-(3-butyl-2,6-Dihydroxybenzyl)-3A-Hydroxy-3,3A,8,8A-Tetrahydro-2H-Furo[2,3-B]Indol-2-Yl)Methyl Benzoate] |  | 37 µM | stronger binding than analogues without extra attachments; also recorded: better binding than MDL-A; also recorded: better activity than MDL-A |  |  |  |  | dose dependent inhibition |  | inhibits the nuclear translocation of STAT3 | 4.43 | 
6 | CCCCn1nccc1C(=O)CN1c2ccccc2[C@]2(O)CCO[C@H]12 [MDL-3] |  |  | better binding than MDL-A |  |  |  |  |  |  |  |  | 
7 | CCCCc1ccc(O)c(Cn2cc(CCO)c3cc(C(=O)OC)ccc32)c1O [MDL-7] |  | 40.8 µM | better binding than MDL-A; also recorded: better activity than MDL-A |  |  |  |  |  | slightly more potent than MDL-5 |  | 4.39 | completely inhibit
